Test results published in patent publication US8486948B2, “Piperazinodihydrothienopyrimidine derivatives” (Boehringer Ingelheim International GmbH, priority 2007, dated 2013).
Counter-ions that a name gives are not always drawn.

These compounds were tested against PDE4B (Homo sapiens, UniProt Q07343) (assay: Scintillation Proximity (SPA) assay, inhibition of PDE4B at 1 μM). Settings: Table A; test substance 1 μM; one hour incubation with [H3]-cAMP at 30° C.
Assay type: biochemical
Protocol: The inhibitions (in %) at 1 μM of the individual Example substances are included in the following Tables of Examples and were determined as follows:
The Scintilation Proximity (SPA) Assays (GE Healthcare, No. TRKQ7090) make use of the different affinities of cyclic 3″-5″-adenosine monophosphate (cAMP, low affinity) and linear 5′-adenosine monophosphate (AMP, high affinity) for yttrium silicate scintillator beads. The cAMP specific phosphodiesterase (PDE) PDE4B cleaves the 3′-phosphoester bond of the tritium-labelled [H3]-cAMP to form the [H3]-5′-AMP. Because of its higher affinity for the scintillator beads this [H3]-AMP accumulates on the beads and causes scintillation events (flashes of light) which are measured in a Wallac Microbeta Scintillation Counter.
The test starts with one hour's incubation of [H3]-cAMP with the PDE4B enzyme in assay buffer at 30° C., once with the Example substance that is to be tested (in a concentration of 1 μM) and once without the Example substance that is to be tested. After this incubation the reaction is stopped by the addition of the beads. The beads are given an opportunity to settle over the next 45 minutes, then they are measured in the Scintillation Counter. If the substance is capable of inhibiting the enzymatic activity of the PDE4B, less [H3]-AMP is formed during the incubation phase and fewer scintillation events can be measured.

Chain of PDE4B (Q07343 whole entry, species assumed): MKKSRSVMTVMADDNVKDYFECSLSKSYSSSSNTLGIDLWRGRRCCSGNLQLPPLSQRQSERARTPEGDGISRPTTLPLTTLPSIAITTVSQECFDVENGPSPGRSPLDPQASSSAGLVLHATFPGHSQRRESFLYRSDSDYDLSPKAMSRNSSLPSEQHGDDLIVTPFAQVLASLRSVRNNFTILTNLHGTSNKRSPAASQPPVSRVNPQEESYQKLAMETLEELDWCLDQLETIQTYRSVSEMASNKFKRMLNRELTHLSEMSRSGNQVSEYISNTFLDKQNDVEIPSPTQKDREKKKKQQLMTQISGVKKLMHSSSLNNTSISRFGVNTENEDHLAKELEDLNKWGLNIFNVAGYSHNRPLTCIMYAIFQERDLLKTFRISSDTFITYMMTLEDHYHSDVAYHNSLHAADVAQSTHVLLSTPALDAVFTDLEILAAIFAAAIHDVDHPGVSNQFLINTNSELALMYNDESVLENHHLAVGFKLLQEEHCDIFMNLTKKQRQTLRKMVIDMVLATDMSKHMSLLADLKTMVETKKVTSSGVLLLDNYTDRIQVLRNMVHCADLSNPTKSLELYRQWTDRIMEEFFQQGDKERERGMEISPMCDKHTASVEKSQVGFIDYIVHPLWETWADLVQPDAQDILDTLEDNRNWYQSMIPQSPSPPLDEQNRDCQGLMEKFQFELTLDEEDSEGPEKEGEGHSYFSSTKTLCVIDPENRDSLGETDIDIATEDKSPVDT

Point of comparison: `[O-][S+]1CCc2nc(N3C4CC[C@@H]3CN(c3ccc(Br)cc3)C4)nc(NC3(CO)CC3)c21` (stereo partly shown) [Example 28, (1-{2-[3-(4-bromophenyl)-3,8-diazabicyclo[3.2.1]oct-8-yl]-5-oxo-6,7-dihydro-5H-5λ^4-thieno[3,2-d]pyrimidin-4-ylamino}-cyclopropyl)-methanol trifluoroacetate], inhibition at 1 µM 97%. Against it:
- CN1C[C@@H](Nc2nc(N3C[C@H]4CC3CN4c3ccc(Cl)cc3)nc3c2[S+]([O-])CC3)CCC1=O (stereo partly drawn) [Example 9, (S)-5-{2-[5-(4-chlorophenyl)-2,5-diazabicyclo[2,2,1]hept-2-yl]-5-oxo-6,7-dihydro-5H-5λ^4-thieno[3,2-d]pyrimidin-4-ylamino}-1-methylpiperidin-2-one] — lower, 96%
- O=C1CN(c2nc3c(c(NC4CCOCC4)n2)[S+]([O-])CC3)CCN1c1ccc(Br)cc1 (stereo not shown) [Example 12] — lower, 93%
- [O-][S+]1CCc2nc(N3CC4CC3CN4c3ccc(Cl)cc3)nc(NC3(CO)CC3)c21 (stereo not shown) [Example 8] — lower, 95%
- [O-][S+]1CCc2nc(N3CC4CC3CN4c3ccc(Cl)cc3)nc(Nc3cccc(F)c3)c21 (stereo not shown) [Example 7] — lower, 95%

Same assay, conditions: Table C; test substance 1 μM; one hour incubation with [H3]-cAMP at 30° C.

Point of comparison: `[O-][S+]1CCc2nc(N3CCn4cnnc4C3)nc(Nc3cccc(F)c3)c21` (stereo not shown) [Example 41, [2-(5,6-DIHYDRO-8H-[1,2,4]TRIAZOLO[4,3-A]PYRAZIN-7-YL)-5-OXO-6,7-DIHYDRO-5H-5λ^4-THIENO[3,2-D]PYRIMIDIN-4-YL]-(3-FLUOROPHENYL)-AMINE TRIFLUOROACETATE], inhibition at 1 µM 90%. Against it:
- CC(C)[C@H](CO)Nc1nc(N2CCn3c(nnc3-c3ccc(F)cc3)C2)nc2c1[S+]([O-])CC2 (stereo partly shown) [Example 43] — lower, 88%

Same assay, conditions: Table D; test substance 1 μM; one hour incubation with [H3]-cAMP at 30° C.

Point of comparison: `CN(C(=O)c1cn2c(n1)CN(c1nc3c(c(NC4CCOCC4)n1)[S+]([O-])CC3)CC2)C1CC1` (stereo not shown) [Example 50], inhibition at 1 µM 93%. Against it:
- CN1CCC(N(C)C(=O)c2cn3c(n2)CN(c2nc4c(c(NC5CCOCC5)n2)[S+]([O-])CC4)CC3)CC1 (stereo not shown) [Example 49] — the same, 93%
- CN1C[C@@H](Nc2nc(N3CCn4c(nnc4-c4ccc(F)cc4)C3)nc3c2[S+]([O-])CC3)CCC1=O (stereo partly shown) [Example 47] — higher, 96%
